EC50 and Emax data for 27 compounds are collected here from patent US20080280868A1, “Pyridine Derivatives and Their Use as Cb2 Receptor Modulators” (priority 2004, published 2008).

Structures can show the parent of a compound that is named as a salt. Where two headings read alike, the source gives them in different places.

For the assay, the target named is T1, human cannabinoid CB2 receptor (Homo sapiens, UniProt P34972).
T1 construct: expressed in transfected cells; host or cells: Saccharomyces cerevisiae strain MMY23 (cassette integrated at the ura3 locus, GPD promoter)
Nature of the assay: Cannabinoid CB2 receptor agonist activity in yeast cells (FDGlu fluorescence). It is filed as cell-based. The settings on record: for Emax: read-out: efficacy value (Emax) at the cloned human cannabinoid CB2 receptor. As for the experimental part:
The cannabinoid CB2 receptor agonist activity of the compounds of formula (I) was determined in accordance with the following experimental method.
Yeast (Saccharomyces cerevisiae) cells expressing the human cannabinoid CB2 receptor were generated by integration of an expression cassette into the ura3 chromosomal locus of yeast strain MMY23. This cassette consisted of DNA sequence encoding the human CB2 receptor flanked by the yeast GPD promoter to the 5′ end of CB2 and a yeast transcriptional terminator sequence to the 3′ end of CB2. MMY23 expresses a yeast/mammalian chimeric G-protein alpha subunit in which the C-terminal 5 amino acids of Gpal are replaced with the C-terminal 5 amino acids of human Gαi3 (as described in Brown et al. (2000), Yeast 16:11-22).
Agonists were prepared as 10 mM stocks in DMSO. […] Agonist solutions in DMSO (1% final assay volume) were transferred into black, clear bottom, microtitre plates from NUNC (96- or 384-well). Cells were suspended at a density of 0.2 OD600/ml in SC media lacking histidine, uracil, tryptophan, adenine and leucine and supplemented with 10 mM 3-aminotriazole, 0.1M sodium phosphate pH 7.0, and […] fluorescein di-β-D-glucopyranoside (FDGlu). […] After incubation at 30° C. for 24 hours, fluorescence resulting from degradation of FDGlu to fluorescein due to exoglucanase, an endogenous yeast enzyme produced during agonist-stimulated cell growth, was determined using a Spectrofluor microtitre plate reader (Tecan; excitation wavelength: 485 nm; emission wavelength: 535 nm). Fluorescence was plotted against compound concentration and iteratively curve fitted using a four parameter fit to generate a concentration effect value. Efficacy (Emax) was calculated from the equation
Equieffective molar ratio (EMR) values were calculated from the equation

Where [1] appears, read: Emax relative to HU210, yeast expressing human CB2.
Setting [2] is: yeast (Saccharomyces cerevisiae) expressing human CB2, agonist, 30° C. for 24 hours, read-out: EC50 at the cloned human cannabinoid CB2 receptor.

T1 sequence (P34972 whole entry): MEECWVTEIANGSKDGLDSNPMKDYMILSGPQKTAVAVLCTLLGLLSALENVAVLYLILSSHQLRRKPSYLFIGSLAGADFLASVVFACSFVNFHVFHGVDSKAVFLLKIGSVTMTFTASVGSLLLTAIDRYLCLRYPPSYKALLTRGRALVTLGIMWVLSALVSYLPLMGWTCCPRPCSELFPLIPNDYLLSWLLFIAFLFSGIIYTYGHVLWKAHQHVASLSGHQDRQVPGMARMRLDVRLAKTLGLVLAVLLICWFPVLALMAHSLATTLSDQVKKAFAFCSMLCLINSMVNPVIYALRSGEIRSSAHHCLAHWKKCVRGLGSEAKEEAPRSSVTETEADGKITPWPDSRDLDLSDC

Consider `CC(C)c1cc(Nc2ccc(Cl)c(Cl)c2)ncc1CNCC1CCC1` [Example 17, {5-[(Cyclobutylmethyl-amino)-methyl]-4-isopropyl-pyridin-2-yl}-(3,4-dichloro-phenyl)-amine,compound with formic acid (1:1.2)], for which the EC50 was less than 300 nM and the maximal response (Emax) is greater than 50%.

On to `CC(C)CNCc1cnc(Nc2ccc(Cl)c(Cl)c2)cc1C(C)C` [Example 47, (3,4-Dichloro-phenyl)-[5-(isobutylamino-methyl)-4-isopropyl-pyridin-2-yl]-amine, compound withformic acid (1:1)], for which the EC50 is less than 300 nM and the Emax was greater than 50%.

As for `Clc1cccc(Nc2cc(C3CC3)c(CNCC3CC3)cn2)c1` [Example 3, (3-Chlorophenyl)-(4-cyclopropyl-5-[(cyclopropylmethyl-amino)-methyl]-pyridin-2-yl}-amine acetate], the EC50 is less than 300 nM and the Emax was greater than 50%.

On to `Fc1ccc(CNCc2cnc(Nc3cccc(Cl)c3)cc2C2CC2)cc1` [Example 52, (3-Chloro-phenyl)-{4-cyclopropyl-5-[(4-fluorobenzylamino)methyl]-pyridin-2-yl}-amine dihydrochloride], for which the EC50 was less than 300 nM and the maximum response (Emax) was greater than 50%.

On to `CC(C)CNCc1cnc(Nc2cccc(Br)c2)cc1C(C)C` [Example 48, (3-Bromo-phenyl)-[5-(isobutylamino-methyl)-4-isopropyl-pyridin-2-yl]-amine, compound withformic acid (1:33)], for which the Emax under setting [1] was greater than 50%. Under setting [2], the EC50 is less than 300 nM.

Regarding `CC(C)c1cc(Nc2cccc(C(F)(F)F)c2F)ncc1C(C)NCC1CCC1` (stereo not shown) [Example 56, {[1-Cyclobutylmethyl-amino)ethyl]-4-isopropyl-pyridin-2-yl}-(2-fluoro-3-trifluoromethyl-phenyl)-amine dihydrochloride], the concentration giving a half-maximal response (EC50) is less than 300 nM and the maximal effect (Emax) is greater than 50%.

As for `CC(C)c1cc(Nc2cc(F)cc(F)c2)ncc1CNCC1CC1` [Example 31, {5-[(Cyclopropylmethyl-amino)-methyl]-4-isopropyl-pyridin-2-yl}-(3,5-difluoro-phenyl)-amine,compound with formic acid (1:1)], the Emax is greater than 50%. In addition, under setting [2], the EC50 lay within 300 to 1000 nM.

For `CC(C)c1cc(Nc2cccc(Cl)c2)ncc1CNCC1CCCC1` [Example 50, (3-Chloro-phenyl)-{5-[(cyclopentylmethyl-amino)-methyl]-4-isopropyl-pyridin-2-yl}-amine, compound with formic acid(1:1)], the EC50 is less than 300 nM and the maximal effect (Emax) is greater than 50%.

Take `Clc1cccc(Nc2cc(C3CC3)c(CNCC3CCCC3)cn2)c1` [Example 62, (3-Chloro-phenyl)-{5-[(cyclopentylmethyl-amino)-methyl]-4-cyclopropyl-pyridin-2-yl}-amine di-Hydrochloride]: the EC50 was less than 300 nM and the Emax is greater than 50%.

In the case of `Clc1cccc(Nc2cc(C3CC3)c(CNC3CCOCC3)cn2)c1` [Example 11, (3-Chlorophenyl)-{4-cyclopropyl-5-[(tetrahydro-pyran-4-ylamino)-methyl]-pyridin-2-yl}-amineacetate], the Emax is greater than 50%. Besides, the EC50 under setting [2] was 300 to 1000 nM.

Turning to `Cc1cccc(Nc2cc(C(C)C)c(CNCC3CCC3)cn2)c1` [Example 12, {5-[(Cyclobutylmethyl-amino)methyl]-4-isopropyl-pyridin-2-yl}-m-tolyl-amine], the EC50 was in the range of 300 to 1000 nM and the Emax is greater than 50%.

`CC(C)c1cc(Nc2ccc(F)c(F)c2)ncc1CNCC1CC1` [Example 37, {5-[(Cyclopropylmethyl-amino)-methyl]-4-isopropyl-pyridin-2-yl}-(3,4-difluoro-phenyl)-amine,compound with formic acid (1:1.15)]: the EC50 was 300 to 1000 nM and the Emax was greater than 50%.

As to `CC(C)c1cc(Nc2cccc(Cl)c2)ncc1CN1CCC1` [Example 59, (5-Azetidin-1-ylmethyl-4-isopropyl-pyridin-2-yl)-(3-chloro-phenyl)-amine.dihydrochloride], the concentration giving a half-maximal response (EC50) under setting [2] is less than 300 nM.

`CC(C)c1cc(Nc2cccc(Cl)c2)ncc1CN1CCC(F)(F)CC1` [Example 57, (3-Chloro-phenyl)-[5-(4,4-difluoro-piperidin-1-ylmethyl)-4-isopropylpyridin-2-yl]-amine dihydrochloride]: the EC50 was less than 300 nM and the Emax was greater than 50%.

As to `CC(C)c1cc(Nc2ccc(F)c(Cl)c2)ncc1CNCC1CC1` [Example 34, (3-Chloro-4-fluoro-phenyl)-{5-[(cyclopropylmethyl-amino)-methyl]-4-isopropyl-pyridin-2-yl}-amine, compound with formic acid(1:1)], the Emax is greater than 50%. The EC50 under setting [2] was 300 to 1000 nM.

Consider `Cc1ccc(Nc2cc(C(C)C)c(CNCC3CC3)cn2)cc1Cl` [Example 33, (3-Chloro-4-methyl-phenyl)-{5-[(cyclopropylmethyl-amino)-methyl]-4-isopropyl-pyridin-2-yl}-amine, compound with formic acid(1:1)], for which the EC50 is 300 to 1000 nM and the maximal effect (Emax) was greater than 50%.

Take `CC(C)c1cc(Nc2ccc(Cl)cc2Cl)ncc1CN1CCSCC1` [Example 61, (2,4-Dichloro-phenyl)-(4-isopropyl-5thiomorpholin-4-ylmethyl-pyridin-2-yl)-amine dihydrochloride]: the concentration giving a half-maximal response (EC50) is less than 300 nM and the Emax was greater than 50%.

Regarding `CC(C)c1cc(N(C)c2cccc(Br)c2)ncc1CNCC1CCOCC1` [Example 49, (3-Bromo-phenyl)-(4-isopropyl-5-{[(tetrahydro-pyran-4-ylmethyl)-amino]-methyl}-pyridin-2-yl)-methyl-amine, compound withformic acid (1:1)], under setting [1], the maximal effect (Emax) was greater than 50%. Also, the concentration for a half-maximal effect (EC50) under setting [2] was less than 300 nM.

For `CC(C)CNCc1cnc(Nc2ccc(Cl)cc2Cl)cc1C(C)C` [Example 23, (2,4-Dichloro-phenyl)-[5-(isobutylamino-methyl)-4-isopropyl-pyridin-2-yl]-amine, compound withformic acid (1:1)], the concentration giving a half-maximal response (EC50) was less than 300 nM and the Emax is greater than 50%.

As to `Clc1cccc(Nc2cc(C3CC3)c(CNC3CC3)cn2)c1` [Example 2, (3-Chlorophenyl)-(4-cyclopropyl-5-cyclopropylaminomethyl-pyridin-2-yl)-amineacetate], the maximum response (Emax) under setting [1] was greater than 50%. Moreover, under setting [2], the EC50 is less than 300 nM.

For the compound `Fc1ccc(CNCc2cnc(Nc3ccc(Cl)cc3Cl)cc2C(F)(F)F)cc1` [Example 54, (2,4-Dichlorophenyl)-{5-[(4-fluoro-benzylamino)-methyl]-4-trifluoromethyl-pyridin-2-yl}-amine], under setting [2], the EC50 fell in the range of 300 to 1000 nM.

As to `CC(C)CNCc1cnc(Nc2cccc(C(F)(F)F)c2F)cc1C(C)C` [Example 46, (2-Fluoro-3-trifluoromethyl-phenyl)-5-[(isobutylamino-methyl)-4-isopropyl-pyridin-2-yl]-amine,compound with formic acid (1:1.13)], under setting [1], the Emax is greater than 50%. Moreover, under setting [2], the EC50 was less than 300 nM.

Take `O=S1(=O)CCC(NCc2cnc(Nc3cccc(Cl)c3)cc2C2CC2)CC1` [Example 63, (3-Chloro-phenyl)-{4-cyclopropyl-5-[(1,1-dioxo-hexahydro-1l^6-thiopyran-4-ylamino)-methyl]-pyridin-2-yl}-amine di-hydrochloride]: the 50% effective concentration (EC50) is less than 300 nM and the Emax is greater than 50%.

Consider `Cc1cc(Cl)ccc1Nc1cc(C(C)C)c(CNCC2CCC2)cn1` [Example 27, (4-Chloro-2-methyl-phenyl)-{5-[(cyclobutylmethyl-amino)-methyl)-4-isopropyl-pyridin-2-yl}-amine,compound with formic acid (1:1.33)], for which the EC50 lay in the range of 300 to 1000 nM and the maximal response (Emax) was greater than 50%.

Consider `CCCNCc1cnc(Nc2cccc(Cl)c2)cc1C1CC1` [Example 55, (3-Chloro-phenyl)-(4-cyclopropyl-5-propylaminomethyl-pyridin-2-yl) amine dihydrochloride], for which the EC50 was less than 300 nM and the maximal effect (Emax) was greater than 50%.

On to `CC(C)c1cc(Nc2cccc(Cl)c2)ncc1CN1CCSCC1` [Example 60, (3-Chloro-phenyl)-(4-isopropyl-5-thiomorpholin-4-ylmethyl-pyridin-2-yl)-amine. dihydrochloride], for which the EC50 was less than 300 nM and the Emax is greater than 50%.

Take `CC(C)c1cc(Nc2ccc(OC(F)(F)F)cc2Br)ncc1CNCC1CCC1` [Example 26, (2-Bromo-4-trifluoromethoxy-phenyl)-{5-[(cyclobutylmethyl-amino)-methyl]-4-isopropyl-pyridin-2-yl}-amine, compound with formicacid (1:1)]: the Emax was greater than 50%. Further, the EC50 under setting [2] was in the range of 300 to 1000 nM.
